# Measured values: patent US7449495B2, “Retinoid derivatives with antiangiogenic, antitumoral and proapoptotic activities” (Sigma-Tau Industrie Farmaceutiche Riunite S.p.A., priority 2001, dated 2008)
# pIC50: −log10 of the molar value.
# Experiments:
# Assay type in all cases: cell-based
# [1] = system: Human Promyelocytic Leukaemia HL-60 Cells; assay: Cyto-fluorometric cell cycle analysis, HL-60; details: for APOPTOSIS / G0/G1 / G2 + M / S: 3 days; for G0/G1 / G2 + M / S: percentage of cell cycle phase
# Experimental: To evaluate the effect of the compound according to the invention, on various phases of the cell cycle, cyto-fluorometric cell cycle analyses were performed.
# HL60 or NB4 cells were seeded onto plates at a density of 150.000 cells/ml in RPMI 1640 medium containing 10% FCS, the test compound (ST 1926) was added, […], in the presence or absence of sub-optimal doses of ATRA (5-10 nM for NB4 and 0.5 μM for HL60) in the dark and placed in an incubator for 3 days without changing the culture medium.
# On the third day of treatment 500.000 cells were sampled, centrifuged at 180×g for 5 minutes, washed twice in calcium and magnesium free PBS. The cells (1×10^6/ml of fixative) were fixed for at least 1 hour in a fixation mixture comprised of acetone/methanol 1:4 v/v maintained at −20° C. and 50% of calcium and magnesium free PBS; then the cells were centrifuged, washed in calcium and magnesium free PBS, and again centrifuged and washed. The cellular precipitate was incubated for 30 minutes in the dark at room temperature with 200 μl of […] (100 μg/ml) and 200 μl of RNAse (150 KU/mg).
# The samples with filtered through nylon filters (60-80 μm diameter) and analysed by cyto-fluorimeter FACScan (Becton Dickinson), acquiring 20000 events/sample, at an excitation wavelength of 488 nm and emission wavelength of 620 nm. The analysis of the percentages of the cell cycle phases was performed using a dedicated software package, Modfit v. 2.0 (Becton Dickinson).
# Human melanoma MeWo = assay: Cytotoxicity test (sulphorodamine B), MeWo; details: 24 h incubation, survival 48 h after removal
# From the text: (§1) Different cell lines deriving from solid tumors were also used. • 1. Human prostate carcinoma PC3 and DU145. These cell lines were maintained in RPMI 1640 medium containing 10% FCS, 1% sodium pyruvate and 1% glutamine; • 2. Human colon adenocarcinoma LoVo. This cell line was maintained in HAM's F-12 medium, containing 10% FCS and 1% glutamine. • 3. Human ovarian carcinoma such as A2780 and A2780/Dx, sensitive and resistant to drugs, respectively (doxorubicin, taxol, etoposide, vincristine); IGROV-1 and IGROV-1/Pt, sensitive and resistant to platinum-based chemotherapy, respectively, were maintained in RPMI 1640 medium containing 10% FCS, 1% sodium pyruvate and 1% glutamine; • 4. Human melanoma MeWo and MeS 2.21, glioblastoma GBM, no small cell lung carcinomas A431, NCI—H460, osteosarcomas SAOS and U2OS were maintained in RPMI 1640 medium containing 10% FCS, 1% sodium pyruvate and 1% glutamine.
# (§2) The cytotoxicity tests were carried out using NB4 or HL-60 cells in suspension (10000/well). The cells were seeded in a volume of 250 μl in 96 well plates and incubated for 24 hours at 37° C. […] The optical density was measured using a Multiskan spectrophotometer at 540 nm. […]
# (§3) Cell survival was determined by incubation with ST1926 for 24 hours, 48 hours after the removal of the compound. […]
# [2] = system: Human prostate carcinoma PC3; assay: Cytotoxicity test (sulphorodamine B), PC3; details: 24 h incubation, survival 48 h after removal, read-out: IC50
# From the text: as §1, §2, §3
smiles,measurement,setting,value
"O=C(O)/C=C/c1ccc(-c2ccc(O)c(C34CC5CC(CC(C5)C3)C4)c2)cc1 [ST1926, E-4-(3-(1-adamantyl)-4-hydroxyphenyl)cinnamic acid]",APOPTOSIS,"[1]; HL-60, 0.0025 μM",8
same,G0/G1,"[1]; HL-60, 0.0025 μM",54.9
same,G2 + M,"[1]; HL-60, 0.0025 μM",11.7
same,S,"[1]; HL-60, 0.0025 μM",33.4
same,APOPTOSIS,"[1]; HL-60, 0.005 μM",14.0
same,G0/G1,"[1]; HL-60, 0.005 μM",53.4
same,G2 + M,"[1]; HL-60, 0.005 μM",12.2
same,S,"[1]; HL-60, 0.005 μM",34.4
same,APOPTOSIS,"[1]; HL-60, 0.01 μM",12.5
same,G0/G1,"[1]; HL-60, 0.01 μM",52.0
same,G2 + M,"[1]; HL-60, 0.01 μM",12.6
same,S,"[1]; HL-60, 0.01 μM",35.4
same,APOPTOSIS,"[1]; HL-60, 0.05 μM",13.0
same,G0/G1,"[1]; HL-60, 0.05 μM",45.0
same,G2 + M,"[1]; HL-60, 0.05 μM",13.0
same,S,"[1]; HL-60, 0.05 μM",42.0
same,APOPTOSIS,"[1]; HL-60, 0.1 μM",27.5
same,G0/G1,"[1]; HL-60, 0.1 μM",39.9
same,G2 + M,"[1]; HL-60, 0.1 μM",13.3
same,S,"[1]; HL-60, 0.1 μM",46.8
same,APOPTOSIS,"[1]; HL-60, 0.5 μM",82
same,APOPTOSIS,"[1]; HL-60, 1 μM",86.5
same,effect on HL-60 cells (in words),"[1]; HL-60, 0.5 and 1 μM, three days, cell cycle not measurable",strong pro-apoptotic effect
same,pIC50,Human melanoma MeWo,6.64
same,pIC50,[2],6.68
